Values joined by “and” are separate entries in the source; they are usually repeats but may differ in a detail not shown here. Equal entries are not always repeated.
Tested on: left anterior descending coronary artery (LAD) occlusion, Sprague-Dawley rats
Experiment: Ventricular arrhythmias (Lown classification, VPB-Score) during final permanent LAD occlusion
Format: in vivo, rat

| SMILES | rats with class IIIa arrhythmias (Lown) (5 DAYS RIP, during FPO) | rats with class IVb arrhythmias (Lown) (5 DAYS RIP, during FPO) | rats with class 0 arrhythmias (Lown) (rat, in vivo) | rats with class IIIa arrhythmias (Lown) (rat, in vivo) | rats with class IVb arrhythmias (Lown) (rat, in vivo) |
| --- | --- | --- | --- | --- | --- |
| CC(=O)Oc1ccccc1C(=O)O [ASA, acetyl salicylic acid] | 16.7% | 83.3% | – | – | – |
| O=[N+]([O-])OCC(CO[N+](=O)[O-])O[N+](=O)[O-] [NTG, nitroglycerin] | – | – | 57.1% | 14.3% | 85.7% and 42.9% |

— patent US9675552B2, “Use of stabilized granules containing glyceryl trinitrate for arteriogenesis” (G. Pohl-Boskamp GmbH & Co. KG, priority 2012, dated 2017)
